From ChEMBL document CHEMBL1201862, “PubChem BioAssay data set” (2004)
Activity calls are given as the source filed them.

Tests used:
[1] = biological target: Ras and Rab interactor 1/Tyrosine-protein kinase ABL1 (Homo sapiens, UniProt P00519+Q13671); format: functional;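 further: biochemical TR-FRET dose-response test measuring inhibition of binding between Rin1 and Abl proteins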
[2] = HepG2 cell cytotoxicity, dose response, cytotoxicity control, plate reader, cherry-pick, antagonist series (AID 743416); format: functional, cell-based
[3] = A549 cell cytotoxicity, dose response, cytotoxicity control, plate reader, cherry-pick, antagonist series (AID 743412); format: functional, cell-based
[4] = biological target: T1, Rac GTPase-activating protein 1 (Homo sapiens, UniProt Q9H0H5); test: MgcRacGAP GTPase-activating activity inhibitors, confirmation, biochemical, ADP Hunter fluorescence, primary and confirmatory (AID 624330); format: functional
T1 sequence (Q9H0H5 whole entry): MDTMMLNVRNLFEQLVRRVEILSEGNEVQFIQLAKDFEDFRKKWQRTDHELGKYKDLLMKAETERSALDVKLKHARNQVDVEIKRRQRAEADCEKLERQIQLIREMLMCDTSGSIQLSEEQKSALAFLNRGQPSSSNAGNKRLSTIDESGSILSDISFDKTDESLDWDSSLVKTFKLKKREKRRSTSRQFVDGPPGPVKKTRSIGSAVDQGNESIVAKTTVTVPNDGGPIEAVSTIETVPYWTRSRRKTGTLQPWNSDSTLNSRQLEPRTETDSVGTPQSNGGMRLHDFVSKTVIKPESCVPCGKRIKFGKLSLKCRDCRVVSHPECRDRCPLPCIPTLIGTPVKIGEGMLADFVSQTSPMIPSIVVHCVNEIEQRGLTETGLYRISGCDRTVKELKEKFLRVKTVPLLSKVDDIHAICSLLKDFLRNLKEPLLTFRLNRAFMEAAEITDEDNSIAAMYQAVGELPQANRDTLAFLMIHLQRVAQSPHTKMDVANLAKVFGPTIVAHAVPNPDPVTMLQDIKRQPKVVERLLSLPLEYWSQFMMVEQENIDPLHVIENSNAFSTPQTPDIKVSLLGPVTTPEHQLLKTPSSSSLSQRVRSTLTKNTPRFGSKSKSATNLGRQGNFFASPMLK

[5] = LGR2 antagonists, dose response, cell-based, HEK293, CRE-luciferase reporter, cherry pick, set 2 (AID 743343); format: functional;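 further: transfected cells were stimulated with diluted bursicon conditioned medium after compound addition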
[6] = HeLa cell cytotoxicity, dose response, cytotoxicity control for MgcRacGAP inhibitor project (AID 624300); format: functional
[7] = biological target: T2, DNA repair and recombination protein RAD54-like (Homo sapiens, UniProt Q92698); test: inhibitors of human RAD54 branch migration, confirmation, biochemical, fluorescence, cherry-picked samples, dose series (AID 651657); format: functional
T2 sequence (Q92698 whole entry): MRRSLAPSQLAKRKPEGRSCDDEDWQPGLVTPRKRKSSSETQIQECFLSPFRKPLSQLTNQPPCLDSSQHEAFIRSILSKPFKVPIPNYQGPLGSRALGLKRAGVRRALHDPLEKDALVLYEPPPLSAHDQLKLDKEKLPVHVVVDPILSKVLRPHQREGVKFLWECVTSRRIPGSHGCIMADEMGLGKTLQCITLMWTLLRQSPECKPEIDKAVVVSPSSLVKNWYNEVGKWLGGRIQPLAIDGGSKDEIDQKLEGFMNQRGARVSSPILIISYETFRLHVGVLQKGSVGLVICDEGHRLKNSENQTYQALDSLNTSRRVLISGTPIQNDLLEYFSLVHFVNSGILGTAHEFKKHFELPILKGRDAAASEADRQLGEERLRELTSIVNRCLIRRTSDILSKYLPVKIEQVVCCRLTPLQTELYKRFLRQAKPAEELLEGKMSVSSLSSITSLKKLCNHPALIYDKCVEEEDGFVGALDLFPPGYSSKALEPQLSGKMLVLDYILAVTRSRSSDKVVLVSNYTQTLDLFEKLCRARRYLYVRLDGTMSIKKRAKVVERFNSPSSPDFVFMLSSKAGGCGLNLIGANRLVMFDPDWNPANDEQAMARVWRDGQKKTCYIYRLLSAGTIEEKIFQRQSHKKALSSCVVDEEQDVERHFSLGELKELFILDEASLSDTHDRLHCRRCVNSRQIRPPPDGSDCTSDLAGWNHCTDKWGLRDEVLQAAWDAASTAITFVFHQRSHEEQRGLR

[8] = biological target: 72 kDa type IV collagenase (Homo sapiens, UniProt P08253); test: Dose Response validation of uHTS RPN11 inhibitor hits using a MMP-2 Fluorescence assay.; format: functional
72 kDa type IV collagenase, sequence (P08253 whole entry): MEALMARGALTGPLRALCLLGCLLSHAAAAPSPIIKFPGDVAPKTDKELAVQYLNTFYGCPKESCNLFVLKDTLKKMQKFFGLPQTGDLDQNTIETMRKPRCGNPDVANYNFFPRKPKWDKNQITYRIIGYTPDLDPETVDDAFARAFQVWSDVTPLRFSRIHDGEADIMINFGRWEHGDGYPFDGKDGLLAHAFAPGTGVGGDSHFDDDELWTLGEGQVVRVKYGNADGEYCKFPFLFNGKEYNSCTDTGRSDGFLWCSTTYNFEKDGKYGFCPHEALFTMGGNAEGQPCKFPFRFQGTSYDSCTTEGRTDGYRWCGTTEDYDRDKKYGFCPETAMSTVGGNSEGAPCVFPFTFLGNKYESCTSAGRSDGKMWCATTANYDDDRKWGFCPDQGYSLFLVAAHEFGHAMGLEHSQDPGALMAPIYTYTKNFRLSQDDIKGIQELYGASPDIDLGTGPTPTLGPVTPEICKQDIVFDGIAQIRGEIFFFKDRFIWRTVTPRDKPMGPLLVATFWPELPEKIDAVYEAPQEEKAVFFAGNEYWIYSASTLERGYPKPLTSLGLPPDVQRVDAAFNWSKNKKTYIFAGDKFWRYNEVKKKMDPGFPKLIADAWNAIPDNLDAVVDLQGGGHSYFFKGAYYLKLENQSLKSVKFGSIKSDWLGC

[9] = biological target: 26S proteasome non-ATPase regulatory subunit 14 (Homo sapiens, UniProt O00487); test: inhibition of proteasome subunit RPN11 – biochemical, fluorescence polarization, uHTS hits, confirmation (AID 602368); format: functional
26S proteasome non-ATPase regulatory subunit 14, sequence (O00487 whole entry): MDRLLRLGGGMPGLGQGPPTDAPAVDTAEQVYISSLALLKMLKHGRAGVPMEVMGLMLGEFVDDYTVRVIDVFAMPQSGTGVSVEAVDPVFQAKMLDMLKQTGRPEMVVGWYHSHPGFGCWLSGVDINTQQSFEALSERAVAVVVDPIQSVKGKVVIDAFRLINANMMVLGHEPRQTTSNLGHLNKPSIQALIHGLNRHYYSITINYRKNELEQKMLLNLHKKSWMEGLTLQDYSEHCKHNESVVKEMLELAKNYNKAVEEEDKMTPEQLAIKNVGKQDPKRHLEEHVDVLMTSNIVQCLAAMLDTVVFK

[10] = biological target: Dual specificity tyrosine-phosphorylation-regulated kinase 1A (Rattus norvegicus, UniProt Q63470); format: biochemical, Homo sapiens
[11] = biological target: Prothrombin (Bos taurus, UniProt P00735); test: thrombin inhibition, dose response, biochemical, fluorescence polarization, uHTS hits (AID 602369); format: functional
[12] = biological target: T3, Streptokinase A (Streptococcus pyogenes serotype M1, UniProt P10520); test: S. pyogenes streptokinase expression inhibitors, potency, dose response, plasminogen activation absorbance, OD405 (AID 1914); format: functional, Streptococcus pyogenes M1 GAS;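 further: secreted streptokinase activity via plasminogen activation per viability signal from cell pellet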
T3 sequence (P10520 whole entry): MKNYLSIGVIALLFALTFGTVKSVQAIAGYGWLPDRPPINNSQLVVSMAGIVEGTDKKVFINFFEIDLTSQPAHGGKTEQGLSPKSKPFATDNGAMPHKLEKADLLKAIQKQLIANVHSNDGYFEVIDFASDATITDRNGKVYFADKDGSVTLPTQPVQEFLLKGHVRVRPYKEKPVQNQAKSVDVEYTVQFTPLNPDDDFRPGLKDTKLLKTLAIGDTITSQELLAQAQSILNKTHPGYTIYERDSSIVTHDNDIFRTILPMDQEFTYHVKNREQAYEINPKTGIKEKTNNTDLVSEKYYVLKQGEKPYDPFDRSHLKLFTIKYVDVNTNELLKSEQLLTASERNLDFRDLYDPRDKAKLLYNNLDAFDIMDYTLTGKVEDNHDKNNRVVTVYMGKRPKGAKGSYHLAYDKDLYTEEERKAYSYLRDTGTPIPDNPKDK

[13] = system: Streptococcus; test: Group A Streptococcus viability loss, dose response, counter-screen for streptokinase expression inhibitor project, luminescence, BacTiterGlo (AID 1915); format: functional, organism-based;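 further: potency for reduction of bacterial viability or growth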
[14] = system: Streptococcus sp. 'group A'; test: growth inhibition of control SK(-) GAS strain, dose response, counter-screen for streptokinase expression inhibitor project, luminescence, kanamycin, BacTiterGlo, confirmation (AID 1900); format: functional, organism-based
[15] = biological target: DNA (cytosine-5)-methyltransferase 1 (Homo sapiens, UniProt P26358); test: DNMT1 methyltransferase inhibitors, confirmation, biochemical, fluorescent molecular beacon (AID 602386); format: functional
DNA (cytosine-5)-methyltransferase 1, sequence (P26358 whole entry): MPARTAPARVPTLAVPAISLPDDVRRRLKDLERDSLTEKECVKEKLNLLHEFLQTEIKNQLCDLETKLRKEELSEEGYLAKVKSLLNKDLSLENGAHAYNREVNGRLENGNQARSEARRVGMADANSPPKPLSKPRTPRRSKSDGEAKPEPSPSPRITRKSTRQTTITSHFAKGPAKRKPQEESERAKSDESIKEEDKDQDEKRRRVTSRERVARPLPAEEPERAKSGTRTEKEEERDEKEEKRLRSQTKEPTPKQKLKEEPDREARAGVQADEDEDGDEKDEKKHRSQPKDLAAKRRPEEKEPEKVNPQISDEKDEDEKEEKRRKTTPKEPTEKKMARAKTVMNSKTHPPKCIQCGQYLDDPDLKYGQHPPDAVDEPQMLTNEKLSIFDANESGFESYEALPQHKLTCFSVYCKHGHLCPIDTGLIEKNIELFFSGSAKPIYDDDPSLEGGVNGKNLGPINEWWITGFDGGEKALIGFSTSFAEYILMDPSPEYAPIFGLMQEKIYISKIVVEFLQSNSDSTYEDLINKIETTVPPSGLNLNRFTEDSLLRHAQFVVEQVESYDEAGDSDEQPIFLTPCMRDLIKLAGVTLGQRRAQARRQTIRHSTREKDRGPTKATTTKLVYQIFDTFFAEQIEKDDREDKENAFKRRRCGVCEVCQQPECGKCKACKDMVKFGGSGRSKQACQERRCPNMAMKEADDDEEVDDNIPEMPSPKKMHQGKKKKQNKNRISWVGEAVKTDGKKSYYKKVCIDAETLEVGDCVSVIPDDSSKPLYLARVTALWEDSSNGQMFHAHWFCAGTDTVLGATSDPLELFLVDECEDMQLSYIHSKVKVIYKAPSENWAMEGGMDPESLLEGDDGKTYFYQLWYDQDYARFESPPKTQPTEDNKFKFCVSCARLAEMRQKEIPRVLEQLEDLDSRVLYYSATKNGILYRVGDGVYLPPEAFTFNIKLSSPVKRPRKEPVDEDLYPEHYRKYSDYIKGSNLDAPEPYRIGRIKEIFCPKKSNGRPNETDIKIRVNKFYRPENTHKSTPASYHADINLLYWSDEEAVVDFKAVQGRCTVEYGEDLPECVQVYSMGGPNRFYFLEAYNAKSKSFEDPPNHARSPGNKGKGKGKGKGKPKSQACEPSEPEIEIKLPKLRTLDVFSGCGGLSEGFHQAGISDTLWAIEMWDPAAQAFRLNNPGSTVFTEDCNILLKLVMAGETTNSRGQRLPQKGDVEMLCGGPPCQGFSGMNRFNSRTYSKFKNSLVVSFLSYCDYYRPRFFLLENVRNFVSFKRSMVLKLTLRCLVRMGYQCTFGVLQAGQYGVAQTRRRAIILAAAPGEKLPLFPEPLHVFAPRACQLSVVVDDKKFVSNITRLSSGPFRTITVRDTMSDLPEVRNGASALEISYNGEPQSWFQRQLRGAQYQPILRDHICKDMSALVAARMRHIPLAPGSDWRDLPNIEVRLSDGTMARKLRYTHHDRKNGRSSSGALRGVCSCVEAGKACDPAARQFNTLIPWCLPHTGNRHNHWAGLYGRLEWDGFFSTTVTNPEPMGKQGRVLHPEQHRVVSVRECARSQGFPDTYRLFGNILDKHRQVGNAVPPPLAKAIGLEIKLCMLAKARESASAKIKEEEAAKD

[16] = biological target: T4, Trace amine-associated receptor 1 (Homo sapiens, UniProt Q96RJ0); test: Fluorescence-based cell-based high throughput dose response assay to identify agonists of the human trace amine associated receptor 1 (TAAR1).; format: functional
T4 sequence (Q96RJ0 whole entry): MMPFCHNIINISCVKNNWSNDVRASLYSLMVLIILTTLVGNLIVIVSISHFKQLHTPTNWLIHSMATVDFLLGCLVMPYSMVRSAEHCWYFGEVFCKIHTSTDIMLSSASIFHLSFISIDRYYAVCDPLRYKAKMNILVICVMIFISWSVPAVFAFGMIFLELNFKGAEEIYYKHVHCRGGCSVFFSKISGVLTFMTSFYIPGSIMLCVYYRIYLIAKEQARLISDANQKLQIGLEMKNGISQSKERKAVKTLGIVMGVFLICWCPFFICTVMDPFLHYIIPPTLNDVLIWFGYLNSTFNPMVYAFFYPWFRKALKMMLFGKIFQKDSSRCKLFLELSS

[17] = cells; format: functional, cell-based
[18] = cells; format: functional, cell-based; remark: listed apart in the source
[19] = biological target: T4, Trace amine-associated receptor 1; test: Counterscreen for agonists of the human trace amine associated receptor 1 (hTAAR1): Fluorescence-based cell-based high throughput dose response assay to identify hTAAR1 agonist that also desensitize TAAR1 receptor response.; format: functional
[20] = biological target: T5, DNA repair protein RAD52 homolog (Homo sapiens, UniProt P43351); format: functional, biochemical
T5 sequence (P43351 whole entry): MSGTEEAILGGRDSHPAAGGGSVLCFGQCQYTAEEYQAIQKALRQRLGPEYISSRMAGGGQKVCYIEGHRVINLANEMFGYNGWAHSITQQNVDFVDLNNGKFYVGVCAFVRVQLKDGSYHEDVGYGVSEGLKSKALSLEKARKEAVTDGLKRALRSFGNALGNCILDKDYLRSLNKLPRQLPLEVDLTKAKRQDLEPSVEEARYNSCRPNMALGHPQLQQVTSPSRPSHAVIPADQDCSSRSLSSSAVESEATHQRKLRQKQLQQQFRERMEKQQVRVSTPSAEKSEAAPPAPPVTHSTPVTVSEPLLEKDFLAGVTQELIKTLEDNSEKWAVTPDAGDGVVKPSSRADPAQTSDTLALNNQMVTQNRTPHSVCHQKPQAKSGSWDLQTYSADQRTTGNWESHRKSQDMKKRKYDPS

[21] = biological target: T6, Hepatocyte nuclear factor 4-alpha (Homo sapiens, UniProt P41235); format: functional, cell-based;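 further: biochemical luminescence-based dose-response counterscreen measuring inhibition of HNF4 dimerization, run alongside a screen for blockers of ABHD5–perilipin-5 interaction; split luciferase complementation of HNF4 fusion proteins in cell lysate measuring dimerization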
T6 sequence (P41235 whole entry): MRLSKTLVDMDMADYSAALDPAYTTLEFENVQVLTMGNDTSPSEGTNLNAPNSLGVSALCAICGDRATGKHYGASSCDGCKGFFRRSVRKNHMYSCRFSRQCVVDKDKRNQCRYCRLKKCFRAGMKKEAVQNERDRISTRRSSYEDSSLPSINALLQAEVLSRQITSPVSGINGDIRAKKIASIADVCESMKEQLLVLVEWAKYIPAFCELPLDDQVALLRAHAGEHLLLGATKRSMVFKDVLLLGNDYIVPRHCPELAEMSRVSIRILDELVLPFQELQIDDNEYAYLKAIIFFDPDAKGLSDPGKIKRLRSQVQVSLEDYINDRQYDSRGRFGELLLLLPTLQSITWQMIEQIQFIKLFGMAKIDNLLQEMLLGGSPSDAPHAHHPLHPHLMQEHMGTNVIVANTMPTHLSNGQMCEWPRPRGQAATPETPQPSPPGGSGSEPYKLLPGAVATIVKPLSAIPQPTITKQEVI

[22] = biological target: T7, Heat shock factor protein 1 (Mus musculus, UniProt P38532); test: inhibition of MG132-induced HSE-luciferase signal, confirmation, cell-based, NIH3T3, luminescence, dose retest (AID 2382); format: functional;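 further: NIH3T3 fibroblasts with HSF1-driven luciferase reporter stressed by proteasome inhibitor MG132; luminescence from HSF1-driven luciferase expression after 8 hours of MG132 stress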
T7 sequence (P38532 whole entry): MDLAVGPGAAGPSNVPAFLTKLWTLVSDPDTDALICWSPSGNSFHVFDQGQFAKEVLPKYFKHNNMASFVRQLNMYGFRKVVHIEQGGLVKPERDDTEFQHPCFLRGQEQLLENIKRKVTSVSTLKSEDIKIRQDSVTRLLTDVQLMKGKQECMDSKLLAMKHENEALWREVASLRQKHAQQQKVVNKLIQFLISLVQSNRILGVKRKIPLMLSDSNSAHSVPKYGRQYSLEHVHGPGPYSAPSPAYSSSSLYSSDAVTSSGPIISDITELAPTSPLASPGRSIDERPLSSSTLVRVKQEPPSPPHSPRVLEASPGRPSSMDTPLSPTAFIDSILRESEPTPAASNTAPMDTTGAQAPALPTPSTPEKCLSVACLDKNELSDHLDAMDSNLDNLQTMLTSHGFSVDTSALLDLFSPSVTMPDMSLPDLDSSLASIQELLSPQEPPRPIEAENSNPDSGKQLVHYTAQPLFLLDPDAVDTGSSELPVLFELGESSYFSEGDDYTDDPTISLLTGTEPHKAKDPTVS

Ras and Rab interactor 1/Tyrosine-protein kinase ABL1, sequence (P00519 whole entry): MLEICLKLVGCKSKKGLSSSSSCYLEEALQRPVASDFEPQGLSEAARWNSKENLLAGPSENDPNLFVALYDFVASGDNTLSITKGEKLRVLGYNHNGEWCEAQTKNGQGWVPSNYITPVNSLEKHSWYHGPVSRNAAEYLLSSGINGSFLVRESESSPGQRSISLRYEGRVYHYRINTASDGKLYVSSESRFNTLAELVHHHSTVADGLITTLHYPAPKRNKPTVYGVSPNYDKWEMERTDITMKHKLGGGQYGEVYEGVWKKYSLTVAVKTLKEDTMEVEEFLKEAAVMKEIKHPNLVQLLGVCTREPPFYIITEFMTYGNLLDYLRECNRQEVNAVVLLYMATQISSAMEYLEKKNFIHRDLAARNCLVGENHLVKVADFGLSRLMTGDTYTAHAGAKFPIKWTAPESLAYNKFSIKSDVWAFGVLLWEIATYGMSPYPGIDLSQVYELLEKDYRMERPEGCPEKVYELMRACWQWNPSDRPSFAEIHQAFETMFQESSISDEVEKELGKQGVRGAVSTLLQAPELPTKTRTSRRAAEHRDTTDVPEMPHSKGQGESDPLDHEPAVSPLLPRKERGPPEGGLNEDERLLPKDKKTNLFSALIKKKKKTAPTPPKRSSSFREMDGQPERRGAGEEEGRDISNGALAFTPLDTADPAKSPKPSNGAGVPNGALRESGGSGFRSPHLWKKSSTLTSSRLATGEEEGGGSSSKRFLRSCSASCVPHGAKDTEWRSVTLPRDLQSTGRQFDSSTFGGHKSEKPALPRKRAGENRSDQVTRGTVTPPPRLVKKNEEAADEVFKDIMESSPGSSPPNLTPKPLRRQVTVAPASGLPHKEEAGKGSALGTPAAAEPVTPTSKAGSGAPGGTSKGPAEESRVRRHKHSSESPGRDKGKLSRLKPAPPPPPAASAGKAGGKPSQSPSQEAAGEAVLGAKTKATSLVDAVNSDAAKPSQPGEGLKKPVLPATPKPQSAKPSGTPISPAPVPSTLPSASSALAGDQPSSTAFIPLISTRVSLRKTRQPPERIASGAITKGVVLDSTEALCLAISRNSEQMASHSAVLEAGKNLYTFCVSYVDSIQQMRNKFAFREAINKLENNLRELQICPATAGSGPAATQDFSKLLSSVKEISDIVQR
Ras and Rab interactor 1/Tyrosine-protein kinase ABL1, sequence (Q13671 whole entry): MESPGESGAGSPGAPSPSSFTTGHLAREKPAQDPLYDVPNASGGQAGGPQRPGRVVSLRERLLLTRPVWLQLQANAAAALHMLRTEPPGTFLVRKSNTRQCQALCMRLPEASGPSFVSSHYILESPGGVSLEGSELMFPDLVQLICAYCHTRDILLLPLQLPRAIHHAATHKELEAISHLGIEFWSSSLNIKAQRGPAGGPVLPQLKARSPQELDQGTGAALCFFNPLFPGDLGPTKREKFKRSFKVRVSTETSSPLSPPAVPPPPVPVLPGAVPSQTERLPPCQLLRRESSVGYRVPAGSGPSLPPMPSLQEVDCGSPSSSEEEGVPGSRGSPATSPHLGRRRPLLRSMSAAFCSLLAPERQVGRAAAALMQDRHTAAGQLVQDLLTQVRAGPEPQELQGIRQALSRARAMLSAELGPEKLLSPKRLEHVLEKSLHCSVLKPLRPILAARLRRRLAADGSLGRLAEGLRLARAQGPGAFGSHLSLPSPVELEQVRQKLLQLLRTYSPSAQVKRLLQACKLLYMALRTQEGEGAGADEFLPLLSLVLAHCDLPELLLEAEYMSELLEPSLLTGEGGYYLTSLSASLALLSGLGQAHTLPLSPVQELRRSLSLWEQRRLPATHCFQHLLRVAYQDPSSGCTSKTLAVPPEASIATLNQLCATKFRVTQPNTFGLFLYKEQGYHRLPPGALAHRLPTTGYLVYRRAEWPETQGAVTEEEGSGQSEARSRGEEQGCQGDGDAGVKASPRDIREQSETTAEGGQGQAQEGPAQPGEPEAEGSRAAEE

## COC(=O)CCSCc1cn2cc(Cl)ccc2n1
[1]
  IC50: 8.83 µM (active)

## Oc1ccc(-c2csc(-c3cccnc3)n2)c(O)c1
[2]
  AC50: 42.4 µM (active)
[3]
  AC50: 23.6 µM (active)
[4]
  IC50: 30.9 µM (active)
[5]
  AC50: 44.3 µM (active)
[6]
  CC50: 100 µM (active)

## CCOc1ccccc1N(C(=O)c1snc(C(N)=O)c1N)C(C(=O)NCC1CCCO1)c1ccc2ncccc2c1 (stereo not given)
[1]
  IC50: 25.1 µM (inactive)

## O=C(Nc1cccc([N+](=O)[O-])c1)c1cc(S(=O)(=O)N2CCOCC2)cs1
[7]
  AC50: 21.8 µM (active)

## COc1cc(/C=C2\SC(N)=NC2=O)cc(Cl)c1O
[4]
  IC50: 43.6 µM (active)
[8]
  IC50: > 100 µM (inactive)
[9]
  IC50: 26.8 µM (active)
[10]
  AC50: 18.6 µM (active)
[11]
  IC50: 32.8 µM (active)

## COc1ccc(-c2nn(-c3ccccc3)cc2/C=C2/SC(=S)N(CCC(=O)O)C2=O)cc1
[12]
  EC50: > 150 µM (not active)
[13]
  EC50: 4.88 µM (active)
[14]
  EC50: 2.14 µM (active)
[15]
  IC50: 5.06 µM (active)

## Cc1cc(C(=O)CSc2nnnn2-c2ccccc2)c(C)n1CCc1ccccc1
[16]
  EC50: 3.4 µM (active)
[17]
  EC50: > 29.9 µM (inactive)
[18]
  IC50: > 29.9 µM (inactive)
[19]
  IC50: 6.28 µM (active)

## COCCN(CCOC)C(=O)CSc1ccc(S(=O)(=O)N2CCN(C)CC2)cn1
[1]
  IC50: 20.5 µM (inactive)

## CC(=O)Nc1cc(-c2ccc(N3CCN(C)CC3)cc2)cn2c(-c3cccc(C(C)=O)c3)cnc12
[7]
  AC50: 14.8 µM (active)
[20]
  AC50: 4.9 µM (active)

## CC(C)(C)NC(=O)C(c1ccccc1)n1c(=O)c(-c2ccco2)nc2ccccc21 (stereo not given)
[21]
  IC50: 1.4 µM (active)

## COc1ccc(NC(=O)C(c2ccc(C#N)cc2)n2c(=O)c(-c3ccco3)nc3ccccc32)cc1 (stereo not given)
[21]
  IC50: 13.5 µM (inactive)

## COc1cccc(C(=O)N[C@H](C(=O)N2CCC[C@H]2C(=O)NCCc2ccccc2Cl)C(C)C)c1
[16]
  EC50: 1.08 µM (active)
[17]
  EC50: > 29.9 µM (inactive)
[18]
  IC50: > 29.9 µM (inactive)
[19]
  IC50: 2.22 µM (active)

## C/C(=N\CCc1ccccc1)C1=C(O)SCC1=O
[16]
  EC50: 1.55 µM (active)
[17]
  EC50: > 29.9 µM (inactive)
[18]
  IC50: > 29.9 µM (inactive)
[22]
  EC50: > 195 µM (not active)
[19]
  IC50: 9.57 µM (active)
